The source made the active and inactive calls. No cut-off for these calls is given here.
Key:
[1] = Octanol-water partition coefficient, log P of the compound at 1 mg by RP-HPLC analysis; format: physicochemical
SK-N-BE(2)-M17 [2] = assay: Cytoprotection against PQ-induced cell death in human SK-N-BE(2)-M17 cells assessed as increase in cell viability at 100 uM pretreated for 2 hrs followed by 1 mM PQ addition measured after 24 hrs by MTT assay; format: functional, cell-based
SK-N-BE(2)-M17 [3] = assay: Cytoprotection against PQ-induced cell death in human SK-N-BE(2)-M17 cells assessed as increase in cell viability at 100 uM pretreated for 2 hrs followed by 1 mM PQ addition measured after 24 hrs by LDH assay; format: functional, cell-based
SK-N-BE(2)-M17 [4] = assay: Cytoprotection against H2O2-induced cell death in human SK-N-BE(2)-M17 cells assessed as increase in cell viability at 100 uM pretreated for 2 hrs followed by 1 mM H2O2 addition measured after 24 hrs by MTT assay; format: functional, cell-based
SK-N-BE(2)-M17 [5] = assay: Cytoprotection against H2O2-induced cell death in human SK-N-BE(2)-M17 cells assessed as increase in cell viability at 100 uM pretreated for 2 hrs followed by 1 mM H2O2 addition measured after 24 hrs by LDH assay; format: functional, cell-based
SK-N-BE(2)-M17 [6] = assay: Cytoprotection against PQ-induced cell death in human SK-N-BE(2)-M17 cells assessed as increase in cell viability at 100 uM treated 2 hrs post 2 mM PQ treatment measured after 24 hrs by MTT assay; format: functional, cell-based
SK-N-BE(2)-M17 [7] = assay: Cytoprotection against PQ-induced cell death in human SK-N-BE(2)-M17 cells assessed as increase in cell viability treated 2 hrs post 2 mM PQ treatment measured after 24 hrs by MTT assay; format: functional, cell-based
SK-N-BE(2)-M17 [8] = assay: Cytoprotection against PQ-induced cell death in human SK-N-BE(2)-M17 cells assessed as increase in cell viability at 100 uM treated post 200 uM Fecl3 and 1 mM PQ treatment measured after 24 hrs by MTT assay; format: functional, cell-based
SK-N-BE(2)-M17 [9] = assay: Cytoprotection against PQ-induced cell death in human SK-N-BE(2)-M17 cells assessed as increase in cell viability at 100 uM treated post 200 uM Fecl3 and 1 mM PQ treatment measured after 24 hrs by LDH assay; format: functional, cell-based
Astrocyte [10] = assay: Cytoprotection against H2O2-induced cell death in BSO pretreated C57BL6/J mouse brain primary astrocytes assessed as increase in cell viability at 10 uM pretreated for 2 hrs followed by H2O2 addition measured after 24 hrs by MTT assay; format: functional, cell-based
Astrocyte [11] = assay: Cytoprotection against H2O2-induced cell death in BSO pretreated C57BL6/J mouse brain primary astrocytes assessed as increase in cell viability at 10 uM pretreated for 2 hrs followed by H2O2 addition measured after 24 hrs by LDH release assay; format: functional, cell-based
[12] = Binding affinity to Fe3+ in ferric ammonium citrate loaded C57BL6/J mouse brain primary astrocytes assessed as iron depletion at 100 uM treated 2 hrs post 125 uM FAC loading measured after 2 hrs by ICP-MS analysis; format: cell-based
SK-N-BE(2)-M17 [13] = assay: Cytotoxicity against human SK-N-BE(2)-M17 cells at 100 uM 24 hrs by MTT assay; format: cell-based; settings: sk-n-be(2)-m17, 24 h
SK-N-BE(2)-M17 [14] = assay: Cytotoxicity against human SK-N-BE(2)-M17 cells at 100 uM 24 hrs by LDH release assay; format: cell-based; settings: sk-n-be(2)-m17, 24 h
[15] = Binding affinity to Fe3+ assessed as [M+H]+ adduct formation by LC-MS/MS analysis
[16] = Binding affinity to Fe3+ assessed as [M+2H]+ adduct formation by LC-MS/MS analysis
[17] = Binding affinity to Fe3+ assessed as change in retention time for compound-Fe3+ complex by RP-HPLC analysis relative to free ligand
SK-N-BE(2)-M17 [18] = assay: Cytoprotection against H2O2-induced cell death in human SK-N-BE(2)-M17 cells assessed as increase in cell viability at 100 uM treated 2 hrs post 0.8 mM H2O2 treatment measured after 24 hrs by MTT assay; format: functional, cell-based
SK-N-BE(2)-M17 [19] = assay: Cytoprotection against PQ-induced cell death in human SK-N-BE(2)-M17 cells assessed as increase in cell viability up to 1 mM treated 2 hrs post 2 mM PQ treatment by MTT assay; format: functional, cell-based
[20] = Binding affinity to Fe3+
[21] = Binding affinity to Fe2+
SK-N-BE(2)-M17 [22] = assay: Cytoprotection against PQ-induced cell death in human SK-N-BE(2)-M17 cells assessed as increase in cell viability at 1 mM pretreated for 2 hrs followed by 1 mM PQ addition measured after 24 hrs by MTT assay; format: functional, cell-based
SK-N-BE(2)-M17 [23] = assay: Cytoprotection against PQ-induced cell death in human SK-N-BE(2)-M17 cells assessed as increase in cell viability at 1 mM pretreated for 2 hrs followed by 1 mM PQ addition measured after 24 hrs by LDH assay; format: functional, cell-based
SK-N-BE(2)-M17 [24] = assay: Cytoprotection against H2O2-induced cell death in human SK-N-BE(2)-M17 cells assessed as increase in cell viability at 1 mM pretreated for 2 hrs followed by 1 mM H2O2 addition measured after 24 hrs by MTT assay; format: functional, cell-based
SK-N-BE(2)-M17 [25] = assay: Cytoprotection against H2O2-induced cell death in human SK-N-BE(2)-M17 cells assessed as increase in cell viability at 1 mM pretreated for 2 hrs followed by 1 mM H2O2 addition measured after 24 hrs by LDH assay; format: functional, cell-based
SK-N-BE(2)-M17 [26] = assay: Cytoprotection against PQ-induced cell death in human SK-N-BE(2)-M17 cells assessed as increase in cell viability at 100 uM treated 2 hrs post 2 mM PQ treatment measured after 24 hrs by LDH assay; format: functional, cell-based
SK-N-BE(2)-M17 [27] = assay: Cytoprotection against H2O2-induced cell death in human SK-N-BE(2)-M17 cells assessed as increase in cell viability at 100 uM treated 2 hrs post 0.8 mM H2O2 treatment measured after 24 hrs by LDH assay; format: functional, cell-based

Structure (SMILES) | logP [1] | Activity [12] | Activity [15] | Activity [16] | Retention time [17] | Activity (SK-N-BE(2)-M17 [2]) | Activity (SK-N-BE(2)-M17 [3]) | Activity (SK-N-BE(2)-M17 [4]) | Activity (SK-N-BE(2)-M17 [5]) | Activity (SK-N-BE(2)-M17 [6]) | EC50 (SK-N-BE(2)-M17 [7]) | Activity (SK-N-BE(2)-M17 [8]) | Activity (SK-N-BE(2)-M17 [9]) | Activity (Astrocyte [10]) | Activity (Astrocyte [11]) | Activity (SK-N-BE(2)-M17 [13]) | Activity (SK-N-BE(2)-M17 [14]) | Activity (SK-N-BE(2)-M17 [18]) | Activity (SK-N-BE(2)-M17 [26]) | Activity (SK-N-BE(2)-M17 [27]) | other results
CC(=O)N(O)CCCCCNC(=O)CCC(=O)N(O)CCCCCNC(=O)CCC(=O)N(O)CCCCCNC(=O)CC12CC3CC(C)(CC(C)(C3)C1)C2 | 2.17 | Active | Active | Active | 1.54 min | Active | Active | Active | Active | Active | 5.8 µM | Active | Active | Active | Active | Non-Toxic | Non-Toxic | – | – | – | –
CC(=O)N(O)CCCCCNC(=O)CCC(=O)N(O)CCCCCNC(=O)CCC(=O)N(O)CCCCCN [DEFEROXAMINE] | -2.29 | inactive | – | – | -0.52 min | – | – | – | – | – | – | – | – | – | – | – | – | – | – | – | Activity (SK-N-BE(2)-M17 [19]): inactive; log K [20]: 30; log K [21]: 8; Activity (SK-N-BE(2)-M17 [22]): Active; Activity (SK-N-BE(2)-M17 [23]): Active; Activity (SK-N-BE(2)-M17 [24]): Active; Activity (SK-N-BE(2)-M17 [25]): Active
CCCCC[C@]12CC[C@@H](CC1)[C@@H](C(=O)NCCCCCN(O)C(=O)CCC(=O)NCCCCCN(O)C(=O)CCC(=O)NCCCCCN(O)C(C)=O)C2 (relative stereo) | 2.82 | Active | Active | Active | 3.67 min | Active | Active | Active | Active | Active | 10 µM | – | – | Active | Active | Non-Toxic | Non-Toxic | Active | Active | Active | –

The next lines start with results.

logP [1] | Activity [12] | Activity [15] | Activity [16] | Retention time [17] | Structure (SMILES) | Activity (SK-N-BE(2)-M17 [2]) | Activity (SK-N-BE(2)-M17 [3]) | Activity (SK-N-BE(2)-M17 [4]) | Activity (SK-N-BE(2)-M17 [5]) | Activity (SK-N-BE(2)-M17 [6]) | EC50 (SK-N-BE(2)-M17 [7]) | Activity (SK-N-BE(2)-M17 [8]) | Activity (SK-N-BE(2)-M17 [9]) | Activity (Astrocyte [10]) | Activity (Astrocyte [11]) | Activity (SK-N-BE(2)-M17 [13]) | Activity (SK-N-BE(2)-M17 [14]) | Activity (SK-N-BE(2)-M17 [18]) | Activity (SK-N-BE(2)-M17 [26]) | Activity (SK-N-BE(2)-M17 [27]) | other results
2.54 | – | Active | Active | 1.85 min | CC(=O)N(O)CCCCCNC(=O)CCC(=O)N(O)CCCCCNC(=O)CCC(=O)N(O)CCCCCNC(=O)C12CC3(C)CC(C)(CC(C)(C3)C1)C2 | Active | Active | Active | Active | Active | 3.4 µM | Active | Active | Active | Active | Non-Toxic | Non-Toxic | Active | – | – | –
0.96 | Active | Active | Active | -0.04 min | CC(=O)N(O)CCCCCNC(=O)CCC(=O)N(O)CCCCCNC(=O)CCC(=O)N(O)CCCCCNC(=O)C1CCCCC1 | inactive | inactive | inactive | inactive | inactive | – | – | – | – | – | Non-Toxic | Non-Toxic | inactive | inactive | inactive | –
